Assay results taken from US20130209515A1, “ANTI-INFECTIVE AND IMMUNOMODULATORY COMPOUNDS” (priority 2005, published 2013).

System: mouse genes
Experiment: Whole genome expression in blood of mice after 2AA (Affymetrix GeneChip)
Assay type: in vivo
Procedure: To identify how 2AA pre-exposure promotes host defense to better protect against P. aeruginosa infection, we carried out whole genome gene expression studies of mice for several experimental conditions using the mouse full-thickness skin thermal injury infection model, including naïve; BI alone; 2AA treatment alone; 2AA pretreatment plus BI. The mice were injected IP, as we were not yet aware of the improved benefit obtained with IV delivery. Whole blood was collected after 0, 6, 24, 96 and 192 hr post 2AA injection. Also, pretreated BI mice were exposed to 2AA at 1 and 4 days pre-BI, with blood samples collected 24 hr post-BI. The transcriptome profiles were then determined and compared, and genes with statistically significant differences in their expression levels between the samples were further analyzed by pair-wise comparison (see experimental design, section 2.2).
In experiments to determine if T-aminoacetophenone acts as an immunomodulator, eight 6-week old CD-1 male mice were treated intraperitonialy with 500 μl of a 20 mM solution of T-aminoacetophenone in 0.9% NaCl (aq). A control group of mice was administered only 0.9% NaCl. Blood was withdrawn from the mice at time points of 6 hours, 24 hours, 96 hours, and 192 hours, and RNA was extracted from each blood sample.
Mouse GeneChip™ arrays, manufactured by Affymetrix (Santa Clara, Calif.), were used to compare the profile of gene expression in the blood samples of mice. The biotin-labeled cRNA used to hybridize to the GeneChips was prepared from the RNA extracted from the blood samples according to the Affymetrix GeneChip Expression Analysis Technical Manual (Research Genetics, Huntsville, Ala.).
The expression profiles from treated and untreated mice were compared and an additional constraint of a minimum expression ratio of 1 was applied to control false positives to 5%. The gene list was clustered and the genes showing upregulation at any of the time points considered were selected. […] Most of the genes listed in the table function in immune response or host-pathogen interaction. The table includes several cytokines and their receptors, genes involved in immune cell proliferation, and calcium-binding proteins that have a role in downstream signaling.

[1] = 2AA pre-BI, blood 24 hr post-BI (FIG. 38)

With CC(=O)c1ccccc1N [2AA, 2′-aminoacetophenone] the “down-regulated genes in 2AA-treated BI samples” value [1] was 23 genes, the “up-regulated genes in 2AA-treated BI samples” value [1] was “do not identify any up-regulated” and the “Fold Change AF220015 Rpt-1; regulatory protein, T lymphocyte 1” value (6 h after IP 2AA, blood) was 2.3 fold. For the same compound, the “Fold Change AF237910 Membrane-spanning 4-domains, subfamily A” value (6 h after IP 2AA, blood) was 2.8 fold, the “Fold Change AI323359 Csfmr, colony stimulating factor IR, regulator of myeloid cell proliferation” value (6 h after IP 2AA, blood) was 2.3 fold and the “Fold Change AI462015 Nuclear factor of kappa light chain gene enhancer in B-cells inhibitor, alpha” value (6 h after IP 2AA, blood) was 2.3 fold. The “Fold Change AI648846 Solute carrier family 6” value (6 h after IP 2AA, blood) was 10.1 fold, the “Fold Change AV026617 FBJ osteosarcoma oncogene” value (6 h after IP 2AA, blood) was 15.0 fold and the “Fold Change AV229143 Interferon activated gene (202A)” value (6 h after IP 2AA, blood) was 21.2 fold. The “Fold Change AV318494 Myeloid cell leukemia sequence 1” value (6 h after IP 2AA, blood) was 1.8 fold, the “Fold Change BB193024 Interferon-induced transmembrane protein-2” value (6 h after IP 2AA, blood) was 5.0 fold and the “Fold Change BB241535 Suppressor of cytokine signaling 3” value (6 h after IP 2AA, blood) was 4.9 fold. For the same compound, the “Fold Change BB769628 Colony stimulating factor 2 receptor, beta 1” value (6 h after IP 2AA, blood) was 14.9 fold, the “Fold Change BB784999 Triggering receptor expressed on myeloid cells 1” value (6 h after IP 2AA, blood) was 11.6 fold and the “Fold Change BB831725 Suppressor of cytokine signaling 3” value (6 h after IP 2AA, blood) was 20.8 fold. For the same compound, the “Fold Change BC003839 Myeloid cell leukemia sequence 1 (Mcl1)” value (6 h after IP 2AA, blood) was 1.5 fold, the “Fold Change BC010291 Interferon-inducible protein (Cd225)” value (6 h after IP 2AA, blood) was 1.3 fold and the “Fold Change BC011092 Chemokine (C-C) receptor 1” value (6 h after IP 2AA, blood) was 1.2 fold. The “Fold Change BC011437 IL-1β” value (6 h after IP 2AA, blood) was 3.5 fold, the “Fold Change BC012653 Chemokine (C-X3-C) receptor 1” value (6 h after IP 2AA, blood) was 30.6 fold and the “Fold Change BC021916 EMAPI, cytokine activity” value (6 h after IP 2AA, blood) was 1.7 fold. For the same compound, the “Fold Change BC022943 Lymphocyte cytosolic protein 1” value (6 h after IP 2AA, blood) was 2.0 fold, the “Fold Change BE285634 Interleukin-1 receptor accessory protein” value (6 h after IP 2AA, blood) was 1.0 fold and the “Fold Change NM_008039 Receptor activity [formyl peptide receptor, related sequence 2] (Fpr-rs2)” value (6 h after IP 2AA, blood) was 13.6 fold. For the same compound, the “Fold Change NM_008677 p40phox; intracellular signaling cascade neutrophil cytosolic factor 4 (Ncf4)” value (6 h after IP 2AA, blood) was 1.1 fold, the “Fold Change NM_008879 Pls2, L-fimbrin, calcium ion binding lymphocyte cytosolic proteing 1 (Lep 1)” value (6 h after IP 2AA, blood) was 20.4 fold and the “Fold Change NM_009883 Nuclear factor induced by IL-6 (NF-IL6)” value (6 h after IP 2AA, blood) was 1.0 fold. The “Fold Change NM_011087 Paired-Ig-like receptor A1 (Piral)” value (6 h after IP 2AA, blood) was 1.9 fold, the “Fold Change NM_011313 Cacy; calcium binding protein A6 (calcyclin)cyclin-dependent protein kinase” value (6 h after IP 2AA, blood) was 5.7 fold and the “Fold Change NM_011315 Saa-3 lipid transported activity acute phase response” value (6 h after IP 2AA, blood) was 4.7 fold. The “Fold Change NM_011355 PU.1, transcription factor complex cell growth and/or maintenance” value (6 h after IP 2AA, blood) was 17.0 fold, the “Fold Change NM_011940 Interferon-activatable protein (Ifi202)” value (6 h after IP 2AA, blood) was 29.8 fold and the “Fold Change NM_011999 DCIR; C-type (calcium dependent, carbohydrate recognition domain) lectin” value (6 h after IP 2AA, blood) was 22.8 fold. The “Fold Change NM_030691 Integral to membrane immunoglobulin superfamily, member 6 (Igsf6)” value (6 h after IP 2AA, blood) was 14.9 fold, the “Fold Change NM_030694 Interferon-induced transmembrane protein-3” value (6 h after IP 2AA, blood) was 4.7 fold and the “Fold Change U05264 Glycoprotein 49B (Gp49b)” value (6 h after IP 2AA, blood) was 4.7 fold. For the same compound, the “Fold Change U72644 Leukocyte specific transcript 1” value (6 h after IP 2AA, blood) was 1.6 fold, the “Fold Change X14607 Lipocalin 2” value (6 h after IP 2AA, blood) was 13.9 fold and the “additional genes upregulated (higher cutoff, Table 4)” value (6 hours after 2′-aminoacetophenone) was 10 genes. The “Fold Change AF220015 Rpt-1; regulatory protein, T lymphocyte 1” value (24 h after IP 2AA, blood) was 0.6 fold, the “Fold Change AF237910 Membrane-spanning 4-domains, subfamily A” value (24 h after IP 2AA, blood) was 0.5 fold and the “Fold Change AI323359 Csfmr, colony stimulating factor IR, regulator of myeloid cell proliferation” value (24 h after IP 2AA, blood) was 0.7 fold. The “Fold Change AI462015 Nuclear factor of kappa light chain gene enhancer in B-cells inhibitor, alpha” value (24 h after IP 2AA, blood) was 0.4 fold, the “Fold Change AI648846 Solute carrier family 6” value (24 h after IP 2AA, blood) was 8.0 fold and the “Fold Change AV026617 FBJ osteosarcoma oncogene” value (24 h after IP 2AA, blood) was 23.8 fold. For the same compound, the “Fold Change AV229143 Interferon activated gene (202A)” value (24 h after IP 2AA, blood) was 10.9 fold, the “Fold Change AV318494 Myeloid cell leukemia sequence 1” value (24 h after IP 2AA, blood) was 1.1 fold and the “Fold Change BB193024 Interferon-induced transmembrane protein-2” value (24 h after IP 2AA, blood) was 1.0 fold. The “Fold Change BB241535 Suppressor of cytokine signaling 3” value (24 h after IP 2AA, blood) was 1.1 fold, the “Fold Change BB769628 Colony stimulating factor 2 receptor, beta 1” value (24 h after IP 2AA, blood) was 6.9 fold and the “Fold Change BB784999 Triggering receptor expressed on myeloid cells 1” value (24 h after IP 2AA, blood) was 5.9 fold. The “Fold Change BB831725 Suppressor of cytokine signaling 3” value (24 h after IP 2AA, blood) was 6.5 fold, the “Fold Change BC003839 Myeloid cell leukemia sequence 1 (Mcl1)” value (24 h after IP 2AA, blood) was 0.0 fold and the “Fold Change BC010291 Interferon-inducible protein (Cd225)” value (24 h after IP 2AA, blood) was 0.0 fold. The “Fold Change BC011092 Chemokine (C-C) receptor 1” value (24 h after IP 2AA, blood) was −0.9 fold, the “Fold Change BC011437 IL-1β” value (24 h after IP 2AA, blood) was 0.6 fold and the “Fold Change BC012653 Chemokine (C-X3-C) receptor 1” value (24 h after IP 2AA, blood) was 11.6 fold. For the same compound, the “Fold Change BC021916 EMAPI, cytokine activity” value (24 h after IP 2AA, blood) was 0.3 fold, the “Fold Change BC022943 Lymphocyte cytosolic protein 1” value (24 h after IP 2AA, blood) was 0.2 fold and the “Fold Change BE285634 Interleukin-1 receptor accessory protein” value (24 h after IP 2AA, blood) was 0.2 fold. The “Fold Change NM_008039 Receptor activity [formyl peptide receptor, related sequence 2] (Fpr-rs2)” value (24 h after IP 2AA, blood) was 0.6 fold, the “Fold Change NM_008677 p40phox; intracellular signaling cascade neutrophil cytosolic factor 4 (Ncf4)” value (24 h after IP 2AA, blood) was 0.2 fold and the “Fold Change NM_008879 Pls2, L-fimbrin, calcium ion binding lymphocyte cytosolic proteing 1 (Lep 1)” value (24 h after IP 2AA, blood) was 8.4 fold. For the same compound, the “Fold Change NM_009883 Nuclear factor induced by IL-6 (NF-IL6)” value (24 h after IP 2AA, blood) was 0.3 fold, the “Fold Change NM_011087 Paired-Ig-like receptor A1 (Piral)” value (24 h after IP 2AA, blood) was 0.9 fold and the “Fold Change NM_011313 Cacy; calcium binding protein A6 (calcyclin)cyclin-dependent protein kinase” value (24 h after IP 2AA, blood) was 2.3 fold. The “Fold Change NM_011315 Saa-3 lipid transported activity acute phase response” value (24 h after IP 2AA, blood) was 5.6 fold, the “Fold Change NM_011355 PU.1, transcription factor complex cell growth and/or maintenance” value (24 h after IP 2AA, blood) was 0.0 fold and the “Fold Change NM_011940 Interferon-activatable protein (Ifi202)” value (24 h after IP 2AA, blood) was 9.4 fold. For the same compound, the “Fold Change NM_011999 DCIR; C-type (calcium dependent, carbohydrate recognition domain) lectin” value (24 h after IP 2AA, blood) was 8.0 fold, the “Fold Change NM_030691 Integral to membrane immunoglobulin superfamily, member 6 (Igsf6)” value (24 h after IP 2AA, blood) was 3.5 fold and the “Fold Change NM_030694 Interferon-induced transmembrane protein-3” value (24 h after IP 2AA, blood) was 1.1 fold. For the same compound, the “Fold Change U05264 Glycoprotein 49B (Gp49b)” value (24 h after IP 2AA, blood) was 1.0 fold and the “Fold Change U72644 Leukocyte specific transcript 1” value (24 h after IP 2AA, blood) was 0.9 fold.
